Assay results from ChEMBL document CHEMBL1240439, “Synthesis and docking studies of novel benzopyran-2-ones with anticancer activity” (2010).
Active and inactive are the calls of the source.

Legend:
Type in all cases: functional
SF-295 = test: Cytotoxicity against human SF295 cells assessed as cell growth at 10 uM after 48 hrs by sulforhodamine B assay
RPMI-8226 = test: Cytotoxicity against human RPMI8226 cells assessed as cell growth at 10 uM after 48 hrs by sulforhodamine B assay
MOLT-4 = test: Cytotoxicity against human MOLT4 cells assessed as cell growth at 10 uM after 48 hrs by sulforhodamine B assay
K562 = test: Cytotoxicity against human K562 cells assessed as cell growth at 10 uM after 48 hrs by sulforhodamine B assay
NCI-H522 = test: Cytotoxicity against human NCI-H522 cells assessed as cell growth at 10 uM after 48 hrs by sulforhodamine B assay
HT-29 = test: Cytotoxicity against human HT-29 cells assessed as cell growth at 10 uM after 48 hrs by sulforhodamine B assay
PC-3 = test: Cytotoxicity against human PC3 cells assessed as cell growth at 10 uM after 48 hrs by sulforhodamine B assay
UACC-62 = test: Cytotoxicity against human UACC62 cells assessed as cell growth at 10 uM after 48 hrs by sulforhodamine B assay
HL-60(TB) = test: Cytotoxicity against human HL-60(TB) cells assessed as cell growth at 10 uM after 48 hrs by sulforhodamine B assay
SR = test: Cytotoxicity against human SR cells assessed as cell growth at 10 uM after 48 hrs by sulforhodamine B assay
EKVX = test: Cytotoxicity against human EKVX cells assessed as cell growth at 10 uM after 48 hrs by sulforhodamine B assay
SK-MEL-2 = test: Cytotoxicity against human SK-MEL-2 cells assessed as cell growth at 10 uM after 48 hrs by sulforhodamine B assay
OVCAR-4 = test: Cytotoxicity against human OVCAR4 cells assessed as cell growth at 10 uM after 48 hrs by sulforhodamine B assay
T47D = test: Cytotoxicity against human T47D cells assessed as cell growth at 10 uM after 48 hrs by sulforhodamine B assay
A549 = test: Cytotoxicity against human A549 cells assessed as cell growth at 10 uM after 48 hrs by sulforhodamine B assay
HOP-62 = test: Cytotoxicity against human HOP62 cells assessed as cell growth at 10 uM after 48 hrs by sulforhodamine B assay
HOP-92 = test: Cytotoxicity against human HOP92 cells assessed as cell growth at 10 uM after 48 hrs by sulforhodamine B assay
NCI-H322M = test: Cytotoxicity against human NCI-H322M cells assessed as cell growth at 10 uM after 48 hrs by sulforhodamine B assay
NCI-H460 = test: Cytotoxicity against human NCI-H460 cells assessed as cell growth at 10 uM after 48 hrs by sulforhodamine B assay
NCI-H226 = test: Cytotoxicity against human NCI-H226 cells assessed as cell growth at 10 uM after 48 hrs by sulforhodamine B assay
NCI-H23 = test: Cytotoxicity against human NCI-H23 cells assessed as cell growth at 10 uM after 48 hrs by sulforhodamine B assay
COLO 205 = test: Cytotoxicity against human COLO205 cells assessed as cell growth at 10 uM after 48 hrs by sulforhodamine B assay
HCC 2998 = test: Cytotoxicity against human HCC2998 cells assessed as cell growth at 10 uM after 48 hrs by sulforhodamine B assay
HCT-116 = test: Cytotoxicity against human HCT116 cells assessed as cell growth at 10 uM after 48 hrs by sulforhodamine B assay
HCT-15 = test: Cytotoxicity against human HCT15 cells assessed as cell growth at 10 uM after 48 hrs by sulforhodamine B assay
KM12 = test: Cytotoxicity against human KM12 cells assessed as cell growth at 10 uM after 48 hrs by sulforhodamine B assay
SW-620 = test: Cytotoxicity against human SW620 cells assessed as cell growth at 10 uM after 48 hrs by sulforhodamine B assay
MCF7 = test: Cytotoxicity against human MCF7 cells assessed as cell growth at 10 uM after 48 hrs by sulforhodamine B assay
MDA-MB-468 = test: Cytotoxicity against human MDA-MB-468 cells assessed as cell growth at 10 uM after 48 hrs by sulforhodamine B assay
MDA-MB-231 = test: Cytotoxicity against human MDA-MB-231 cells assessed as cell growth at 10 uM after 48 hrs by sulforhodamine B assay
Hs-578T = test: Cytotoxicity against human Hs 578T cells assessed as cell growth at 10 uM after 48 hrs by sulforhodamine B assay
BT-549 = test: Cytotoxicity against human BT549 cells assessed as cell growth at 10 uM after 48 hrs by sulforhodamine B assay
IGROV-1 = test: Cytotoxicity against human IGROV1 cells assessed as cell growth at 10 uM after 48 hrs by sulforhodamine B assay
OVCAR-3 = test: Cytotoxicity against human OVCAR-3 cells assessed as cell growth at 10 uM after 48 hrs by sulforhodamine B assay
OVCAR-5 = test: Cytotoxicity against human OVCAR5 cells assessed as cell growth at 10 uM after 48 hrs by sulforhodamine B assay
OVCAR-8 = test: Cytotoxicity against human OVCAR8 cells assessed as cell growth at 10 uM after 48 hrs by sulforhodamine B assay
SK-OV-3 = test: Cytotoxicity against human SKOV3 cells assessed as cell growth at 10 uM after 48 hrs by sulforhodamine B assay
CCRF-CEM = test: Cytotoxicity against human CCRF-CEM cells assessed as cell growth at 10 uM after 48 hrs by sulforhodamine B assay
786-0 = test: Cytotoxicity against human 786-0 cells assessed as cell growth at 10 uM after 48 hrs by sulforhodamine B assay
A498 = test: Cytotoxicity against human A498 cells assessed as cell growth at 10 uM after 48 hrs by sulforhodamine B assay
ACHN = test: Cytotoxicity against human ACHN cells assessed as cell growth at 10 uM after 48 hrs by sulforhodamine B assay
SN12C = test: Cytotoxicity against human SN12C cells assessed as cell growth at 10 uM after 48 hrs by sulforhodamine B assay
RXF 393 = test: Cytotoxicity against human RXF393 cells assessed as cell growth at 10 uM after 48 hrs by sulforhodamine B assay
TK-10 = test: Cytotoxicity against human TK10 cells assessed as cell growth at 10 uM after 48 hrs by sulforhodamine B assay
UO-31 = test: Cytotoxicity against human UO31 cells assessed as cell growth at 10 uM after 48 hrs by sulforhodamine B assay
LOX IMVI = test: Cytotoxicity against human LOXIMVI cells assessed as cell growth at 10 uM after 48 hrs by sulforhodamine B assay
M14 = test: Cytotoxicity against human M14 cells assessed as cell growth at 10 uM after 48 hrs by sulforhodamine B assay
Malme-3M = test: Cytotoxicity against human MALME-3M cells assessed as cell growth at 10 uM after 48 hrs by sulforhodamine B assay
MDA-MB-435 = test: Cytotoxicity against human MDA-MB-435 cells assessed as cell growth at 10 uM after 48 hrs by sulforhodamine B assay
SK-MEL-28 = test: Cytotoxicity against human SK-MEL-28 cells assessed as cell growth at 10 uM after 48 hrs by sulforhodamine B assay
SK-MEL-5 = test: Cytotoxicity against human SK-MEL-5 cells assessed as cell growth at 10 uM after 48 hrs by sulforhodamine B assay
UACC-257 = test: Cytotoxicity against human UACC257 cells assessed as cell growth at 10 uM after 48 hrs by sulforhodamine B assay
DU-145 = test: Cytotoxicity against human DU145 cells assessed as cell growth at 10 uM after 48 hrs by sulforhodamine B assay
SF-268 = test: Cytotoxicity against human SF268 cells assessed as cell growth at 10 uM after 48 hrs by sulforhodamine B assay
SF-539 = test: Cytotoxicity against human SF539 cells assessed as cell growth at 10 uM after 48 hrs by sulforhodamine B assay
SNB-19 = test: Cytotoxicity against human SNB19 cells assessed as cell growth at 10 uM after 48 hrs by sulforhodamine B assay
SNB-75 = test: Cytotoxicity against human SNB75 cells assessed as cell growth at 10 uM after 48 hrs by sulforhodamine B assay
U-251 = test: Cytotoxicity against human U251 cells assessed as cell growth at 10 uM after 48 hrs by sulforhodamine B assay

Measured: Activity

CCCc1cc(=O)oc2c(C)c(OCC(=O)n3nc(C)cc3C)ccc12
inactive: SF-295 | RPMI-8226 | MOLT-4 | K562 | NCI-H522 | HT-29 | PC-3 | UACC-62 | HL-60(TB) | SR | EKVX | SK-MEL-2 | OVCAR-4 | T47D | A549 | HOP-62 | HOP-92 | NCI-H322M | NCI-H460 | NCI-H226 | NCI-H23 | COLO 205 | HCC 2998 | HCT-116 | HCT-15 | KM12 | SW-620 | MCF7 | MDA-MB-468 | MDA-MB-231 | Hs-578T | BT-549 | IGROV-1 | OVCAR-3 | OVCAR-5 | OVCAR-8 | SK-OV-3 | CCRF-CEM | 786-0 | A498 | ACHN | SN12C | RXF 393 | TK-10 | UO-31 | LOX IMVI | M14 | Malme-3M | MDA-MB-435 | SK-MEL-28 | SK-MEL-5 | UACC-257 | DU-145 | SF-268 | SF-539 | SNB-19 | SNB-75 | U-251

CSc1nnc(COc2ccc3c(-c4ccccc4)cc(=O)oc3c2C)o1
inactive: SF-295 | RPMI-8226 | MOLT-4 | K562 | NCI-H522 | HT-29 | PC-3 | UACC-62 | HL-60(TB) | SR | EKVX | SK-MEL-2 | OVCAR-4 | T47D | A549 | HOP-62 | HOP-92 | NCI-H322M | NCI-H460 | NCI-H226 | NCI-H23 | COLO 205 | HCC 2998 | HCT-116 | HCT-15 | KM12 | SW-620 | MCF7 | MDA-MB-468 | MDA-MB-231 | Hs-578T | BT-549 | IGROV-1 | OVCAR-3 | OVCAR-5 | OVCAR-8 | SK-OV-3 | CCRF-CEM | 786-0 | A498 | ACHN | SN12C | RXF 393 | TK-10 | UO-31 | LOX IMVI | M14 | Malme-3M | MDA-MB-435 | SK-MEL-28 | SK-MEL-5 | UACC-257 | DU-145 | SF-268 | SF-539 | SNB-19 | SNB-75 | U-251
